In US20130197002A1, “B[…] TREATING VISUAL DISORDERS MEDIATED BY CENTRAL VISUAL P[…] THE EYE” (ALLERGAN, INC., priority 2012, published 2013):

Test system: rat visual cortex slices
Experiment: Long-term potentiation (LTP) in visual cortex slice
Format: cell-based
Method: Long-Term Potentiation in Visual Cortex Slice
Following decapitation of the anesthetized rat, the brain was rapidly removed and immersed in ice-cold artificial cerebrospinal fluid (ACSF) containing (in mM) NaCl 124, KCl 3, KH2PO4 1.25, CaCl2 3.4, MgSO4 2.5, NaHCO3 26, and D-glucose 10. A block of visual cortex was created by removing the frontal ⅔ portion of the brain and the cerebellum. Coronal visual cortex slices of 350 μm thick were prepared from young adult (200-300 g) male Sprague-Dawley rats using a vibratome (VT 1000 S; Leica). The slices were maintained in an interface recording chamber perfused with preheated ACSF. Slices were continuously perfused with this solution at a rate of 1.00-1.50 ml/min while the surface of the slices was exposed to warm, humidified 95% O2/5% CO2 and maintained at 31±1° C. Visual cortex slices were allowed to recover for 1 hr before recording began. A single stimulating and recording electrode was placed in layer IV and III, respectively, to generate and record field excitatory postsynaptic potentials (fEPSPs). Pulses were administered at 0.05 Hz using a current that produced a fEPSP that is 50% of the maximum spike free response. An input-output (IO) curve is done to determine the stimulation needed to achieve a stable baseline. Following a 15 min stable baseline recording period, a train of 5 theta bursts (each burst containing four pulses at 100 Hz with an inter-burst interval of 200 ms) is delivered to the slice. This is repeated 2 additional times with a 1 minute inter-train interval, and the level of LTP was recorded for at least 30 min. Changes in amplitude of the synaptic response were used to measure the extent of LTP, since the amplitude was determined to be the more consistent parameter than the slope of the response. Control LTP values were obtained from slices not treated with drug. Different slices were used to study drug effects on LTP. Brimonidine was infused after 15 min baseline recording for duration of 20 minutes followed by LTP induction. […] LTP was recorded for at least 30 min after induction.

Row | SMILES | brimonidine-induced enhancement of LTP in presence of alpha 2 pan antagonist (atipamezole plus brimonidine, FIG. 1 right panel) | effect on LTP (brimonidine administered to visual cortex slices, FIG. 1 left panel) | threshold dose for enhancement of LTP (visual cortex slices, FIG. 1 left panel)
1 | CCC1(c2cnc[nH]2)Cc2ccccc2C1 [atipamezole] | fully suppressed | – | –
2 | Brc1c(N=C2NCCN2)ccc2nccnc12 [brimonidine, (5-bromo-quinoxalin-6-yl)-imidazolidin-2-ylidene-amine] | – | marked and dose-dependent enhancement of LTP | 3 nM
